Consider five compounds from US20020077352A1, “N-methyl-D-aspartate receptor antagonists” (priority 2000, published 2002).

For one assay, the system named is NMDARs. Kind of assay: whole-cell patch clamp, NMDA-evoked currents in cultured mouse cortical neurons. Type of assay: cell-based. As to the method:
NMDA (200 μM) alone, NMDA plus aqueous Salvia miltiorrhiza extract (100 μl in 10 ml Hanks solution) and NMDA plus 20 nM tanshinone IIA were applied for about 3 seconds (black bars) in the continuous presence of glycine (10 μM) and absence of Mg^2+.
The ordinate indicates the percent steady-state block of currents evoked by 200 μM NMDA plus 10 μM glycine in the absence of Mg^2+.
NMDA (100 μM) or increasing concentrations of NMDA (100 μM-1600 μM) plus tanshinone IIA (20 nM) were applied for about 3 seconds (indicated by the black bars) in the continuous presence of glycine (10 μM) and absence of Mg^2+,
I/V curves were constructed by subtracting the response in the presence of NMDA (200 μM) plus tanshinone from the control response during the application of NMDA alone for 2 seconds at membrane holding potentials from −60 mV to +60 mV. Data from 2 to 5 sweeps were averaged for each trace.
(§1) The whole-cell patch clamp technique was used in mouse cortical neuronal cultures in order to screen for NMDAR antagonists in Danshen, the root of Salvia milthiorriza Bunge. […] Tanshinones are plant-derived diterpenoid quinones.
The concentration dependence of the steady-state block of NMDA-induced currents was determined in order to obtain the dose/response curve of the NMDAR antagonist action of the tanshinones (FIG. 2). The data were fit according to a logistic equation and the concentration at which 50% of the NMDA-evoked response was blocked (IC50) was calculated from the equation.
Concentration-response curves were obtained in the presence of a saturating dose of tanshinone and increasing amounts of NMDA in cultured mouse cortical neurons (FIG. 3a).
The voltage-dependence of the inhibitory effects of the tanshinones was assessed by constructing current/voltage (I/V) plots in the presence or absence of the drugs (FIG. 3b).

Assay [1] concerns the target T1, recombinant NMDARs composed of NR1 and NR2D subunits (Homo sapiens, UniProt O15399+Q05586).
T1 construct: expressed in transfected cells; host or cells: HEK293, transiently transfected
The assay is described as follows: NMDA-induced current in transiently transfected HEK293 cells expressing recombinant NR1/NR2D NMDARs. In kind it is cell-based. The note with it: for block of the NMDA-induced current, NR1/NR2D: 100 nM, co-application of NMDA and glycine, absence of Mg2+. The text has this: (§2) This example also compared the blocking efficacy of the tanshinones in transiently transfected human embryonic kidney (HEK) 293 cells expressing recombinant NMDARs containing either the NR1/NR2B or NR1/NR2D subunit combinations.

The test system of assay [2] is central benzodiazepine receptors. The settings on record: cited from earlier work.
A further assay relates to AMPA receptors. The assay is described as follows: whole-cell patch clamp, currents activated by AMPA in mouse cultured cortical neurons. Type of assay: cell-based. The settings on record: AMPA 10 μM; 100 nM compound.
Description: as §1
(§3) The present example examined whether tanshinones inhibited currents of AMPA and GABAA receptors evoked by AMPA or GABA, respectively.
(Patch clamp records ionic current or voltage across a cell membrane.)

The next assay deals with GABAA receptors. Kind of assay: whole-cell patch clamp, currents activated by GABA in cultured cortical neurons. In kind it is cell-based, mouse. The note with it: GABA 20 μM; n=3.
Description: as §1, §3

Assay [3] deals with T2, recombinant NMDARs composed of the NR1 and NR2B subunits (Homo sapiens, UniProt Q05586+Q13224).
T2 construct: expressed in transfected cells; host or cells: HEK293, transiently transfected
The assay is described as follows: NMDA-induced current in transiently transfected HEK293 cells expressing recombinant NR1/NR2B NMDARs. In kind it is cell-based.
Description: as §2

Setting [4] is: 200 μM NMDA plus 10 μM glycine, absence of Mg2+; 95% confidence interval given in brackets; read-out: IC50, steady-state block of NMDA-induced currents.
The mark [5] stands for this setting: I/V plots, holding potentials −60 mV to +60 mV.
Where [6] appears, read: purified tanshinones, patch-clamp assay (20 nM, FIG. 1d).

Read-outs that look alike come from different tables or passages of the source.

T1 sequence (O15399 28-1336, other chains not shown): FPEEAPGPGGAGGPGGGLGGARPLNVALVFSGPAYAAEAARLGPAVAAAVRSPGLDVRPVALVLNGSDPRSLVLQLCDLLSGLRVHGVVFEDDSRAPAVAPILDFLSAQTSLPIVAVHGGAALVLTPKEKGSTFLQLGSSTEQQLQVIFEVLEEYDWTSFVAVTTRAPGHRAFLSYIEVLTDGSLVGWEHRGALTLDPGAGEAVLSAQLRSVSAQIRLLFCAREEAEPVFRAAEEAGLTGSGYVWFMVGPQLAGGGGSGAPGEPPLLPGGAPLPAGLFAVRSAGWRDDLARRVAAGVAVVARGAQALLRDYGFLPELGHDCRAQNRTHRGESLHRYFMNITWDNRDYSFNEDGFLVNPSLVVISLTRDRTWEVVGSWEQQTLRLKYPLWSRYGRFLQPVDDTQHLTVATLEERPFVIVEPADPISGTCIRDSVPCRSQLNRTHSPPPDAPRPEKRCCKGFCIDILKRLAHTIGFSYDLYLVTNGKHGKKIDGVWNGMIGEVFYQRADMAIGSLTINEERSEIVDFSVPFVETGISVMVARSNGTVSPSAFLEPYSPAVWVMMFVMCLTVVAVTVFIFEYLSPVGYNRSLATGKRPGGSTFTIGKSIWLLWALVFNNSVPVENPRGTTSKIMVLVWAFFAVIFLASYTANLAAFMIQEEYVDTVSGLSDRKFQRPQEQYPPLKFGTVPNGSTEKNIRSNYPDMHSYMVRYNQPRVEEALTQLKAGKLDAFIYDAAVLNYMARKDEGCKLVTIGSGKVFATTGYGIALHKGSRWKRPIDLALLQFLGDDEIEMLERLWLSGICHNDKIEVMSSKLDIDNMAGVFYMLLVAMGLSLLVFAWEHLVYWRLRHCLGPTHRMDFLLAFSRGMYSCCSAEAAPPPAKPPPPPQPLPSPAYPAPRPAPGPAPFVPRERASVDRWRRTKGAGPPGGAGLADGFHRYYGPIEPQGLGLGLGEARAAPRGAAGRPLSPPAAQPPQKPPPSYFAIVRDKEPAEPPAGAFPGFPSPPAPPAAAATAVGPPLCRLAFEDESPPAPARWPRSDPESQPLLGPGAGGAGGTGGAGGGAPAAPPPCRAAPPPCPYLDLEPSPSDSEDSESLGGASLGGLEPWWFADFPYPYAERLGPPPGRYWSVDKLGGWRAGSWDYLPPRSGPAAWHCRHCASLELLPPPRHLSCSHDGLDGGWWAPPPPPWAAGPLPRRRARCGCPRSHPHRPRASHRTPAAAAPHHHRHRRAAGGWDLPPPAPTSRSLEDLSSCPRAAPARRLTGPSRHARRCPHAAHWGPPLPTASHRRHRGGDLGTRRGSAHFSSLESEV
T2 sequence (Q13224 27-1484, other chains not shown): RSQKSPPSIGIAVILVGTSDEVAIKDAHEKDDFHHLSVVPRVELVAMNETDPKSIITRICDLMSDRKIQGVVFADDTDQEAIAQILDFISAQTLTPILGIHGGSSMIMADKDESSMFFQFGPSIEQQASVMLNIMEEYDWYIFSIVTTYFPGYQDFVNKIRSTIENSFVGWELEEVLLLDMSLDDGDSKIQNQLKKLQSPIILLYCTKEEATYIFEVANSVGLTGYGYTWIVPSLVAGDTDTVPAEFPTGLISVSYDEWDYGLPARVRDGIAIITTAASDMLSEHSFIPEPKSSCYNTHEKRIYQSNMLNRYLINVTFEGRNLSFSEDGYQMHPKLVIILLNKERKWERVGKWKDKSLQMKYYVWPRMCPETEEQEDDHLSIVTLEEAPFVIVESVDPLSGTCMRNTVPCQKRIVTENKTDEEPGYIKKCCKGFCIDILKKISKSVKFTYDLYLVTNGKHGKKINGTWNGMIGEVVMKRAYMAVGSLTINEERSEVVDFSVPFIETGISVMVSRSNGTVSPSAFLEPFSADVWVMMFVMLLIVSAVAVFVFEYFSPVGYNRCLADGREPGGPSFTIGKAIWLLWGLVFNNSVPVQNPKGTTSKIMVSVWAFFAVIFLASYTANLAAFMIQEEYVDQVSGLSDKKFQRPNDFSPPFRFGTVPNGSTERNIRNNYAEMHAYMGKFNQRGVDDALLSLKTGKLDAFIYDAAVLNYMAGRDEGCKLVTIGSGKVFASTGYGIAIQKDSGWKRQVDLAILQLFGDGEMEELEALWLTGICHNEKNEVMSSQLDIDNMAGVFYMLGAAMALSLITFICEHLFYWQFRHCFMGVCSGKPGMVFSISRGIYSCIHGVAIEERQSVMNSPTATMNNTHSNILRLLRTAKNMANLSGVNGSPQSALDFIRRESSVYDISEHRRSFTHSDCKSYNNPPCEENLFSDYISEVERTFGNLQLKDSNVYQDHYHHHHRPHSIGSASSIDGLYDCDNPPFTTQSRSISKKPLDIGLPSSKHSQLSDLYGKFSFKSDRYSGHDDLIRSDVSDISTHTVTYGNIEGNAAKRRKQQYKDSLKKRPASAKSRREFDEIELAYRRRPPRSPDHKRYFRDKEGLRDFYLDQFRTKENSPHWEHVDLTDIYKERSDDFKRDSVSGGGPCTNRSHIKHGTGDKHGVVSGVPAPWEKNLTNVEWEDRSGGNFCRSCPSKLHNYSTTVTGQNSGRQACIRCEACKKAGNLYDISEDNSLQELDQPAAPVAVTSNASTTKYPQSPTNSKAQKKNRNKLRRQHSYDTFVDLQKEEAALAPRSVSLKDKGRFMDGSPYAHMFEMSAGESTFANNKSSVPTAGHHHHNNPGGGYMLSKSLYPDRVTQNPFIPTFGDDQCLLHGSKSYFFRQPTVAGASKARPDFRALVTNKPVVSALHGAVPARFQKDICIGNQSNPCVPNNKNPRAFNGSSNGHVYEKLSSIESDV

For the compound `CC(C)C1=Cc2ccc3c(c2C(=O)C1=O)CCCC3(C)C` [miltirone], the IC50 (as a rule, the concentration that gives 50% inhibition) in the assay on NMDARs (setting [4]) is 2.1 nM. In addition, the “voltage-dependence of inhibition of NMDA-induced whole-cell currents” value in the assay with NMDARs (setting [5]) is recorded as “voltage-independent”. The “inhibition of the NMDA-induced currents” value in the assay with NMDARs (setting [6]) is reported as “strong, but readily reversible inhibition”. In addition, the “block of the NMDA-induced current, NR1/NR2D” value (shortened to “block … NR1/NR2D”) in assay [1] is listed as 11±2%. In addition, the “activity at central benzodiazepine receptors” value in assay [2] is on record as “partial agonists”.

Turning to `Cc1coc2c1C(=O)C(=O)c1c-2ccc2c1CCCC2(C)C` [tanshinone IIA], in the assay with NMDARs (setting [4]), the IC50 was found to be 3.4 nM. Also, the “voltage-dependence of inhibition of NMDA-induced whole-cell currents” value in the assay with NMDARs (setting [5]) was “voltage-independent”. Besides, in the assay on NMDARs (fixed saturating dose of tanshinone (20 nM), increasing NMDA 100-1600 μM), the “mode of inhibition with respect to agonist NMDA and co-agonist glycine” value was “non-competitive inhibition”. In addition, in the assay with NMDARs (setting [6]), the “inhibition of the NMDA-induced currents” value is given as “strong, but readily reversible inhibition”. Moreover, the “inhibition of currents activated by AMPA” value in the assay with AMPA receptors turned out to be 6±3%. Also, the “block of currents activated by GABA” value in the assay on GABAA receptors was determined as 10±3%. Further, the “voltage-dependence of inhibition, NR2B containing receptors” value in assay [3] is “voltage-independent”. For the same compound, the “block … NR1/NR2D” value in assay [1] came out at 61±11%. Also, in assay [1] (greatly reduced efficacy at positive potentials), the “voltage-dependence of inhibition, NR2D containing receptors” value is reported as “voltage-dependent”.

On to `C[C@H]1COC2=C1C(=O)C(=O)c1c2ccc2c1CCCC2(C)C` [cryptotanshinone], for which, in the assay on NMDARs (read-out: IC50, steady-state block of NMDA-induced currents; 200 μM NMDA plus 10 μM glycine, absence of Mg2+; 95% confidence interval given in brackets), the IC50 came to 1.7 nM. Besides, in assay [1], the “block … NR1/NR2D” value is reported as 10±1%.

Consider `Cc1coc2c1C(=O)C(=O)c1c-2ccc2c1CCCC2(C)CO` (stereo not drawn) [tanshinone IIB], for which, in the assay on NMDARs (setting [4]), the IC50 was determined as 1.1 nM. Also, the “voltage-dependence of inhibition of NMDA-induced whole-cell currents” value in the assay with NMDARs (setting [5]) is listed as “voltage-independent”. Further, the “inhibition of the NMDA-induced currents” value in the assay on NMDARs (setting [6]) is given as “strong, but readily reversible inhibition”. In addition, the “block … NR1/NR2D” value in assay [1] stood at 52±11%.

Regarding `Cc1coc2c1C(=O)C(=O)c1c-2ccc2c(C)cccc12` [tanshinone I], in the assay with NMDARs (setting [4]), the IC50 was found to be 3.7 nM. Further, in the assay on NMDARs (setting [5]), the “voltage-dependence of inhibition of NMDA-induced whole-cell currents” value is reported as “voltage-independent”. Also, the “inhibition of the NMDA-induced currents” value in the assay on NMDARs (setting [6]) is on record as “strong, but readily reversible inhibition”. Also, the “block … NR1/NR2D” value in assay [1] turned out to be 4±1%.
